Data taken from paper PMC8835475, “Salviolone from Salvia miltiorrhiza Roots Impairs Cell Cycle Progression, Colony Formation, and Metalloproteinase-2 Activity in A375 Melanoma Cells: Involvement of P21(Cip1/Waf1) Expression and STAT3 Phosphorylation” (International Journal of Molecular Sciences, 2022).

Experiments:
Assay type in all cases: cell-based, human
[1] = system: p-Ser727-STAT3; assay: Immunoblot of p-Ser727-STAT3 in A375 cells; conditions: A375, 20 µM, 72 h
Protocol: (§1) A375 cells were seeded in 6 cm Petri dishes (190 300 cell/dish) and treated with different compounds at 10 or 20 μM. After 48- or 72-h treatment, the cells were scraped using warm 1× sample buffer (2% SDS, 10% glycerol, 50 mM Tris-HCl, 1.75% β-mercaptoethanol, and bromophenol blue) and boiled at 99 °C for 10 min. Total protein extracts were kept at −80 °C until use.
(§2) Protein extracts were analyzed with a 7.5 or 10% polyacrylamide SDS-PAGE and transferred to a polyvinylidene difluoride membrane (PVDF, Thermo Fisher Scientific, Waltham, MA, USA). The membranes were blocked at RT for 1 h with TBST buffer (10 mM Tris-HCl pH 7.5, 100 mM NaCl, 0.1% Tween20) containing 4% Milk (Formulat). […] Immuno-detection was carried out with an ECL kit (GE-Healthcare, Little Chalfont, UK), and the chemiluminescence signals were detected with ChemiDoc (Bio-Rad, Hercules, CA, USA).

[2] = system: pCdk2; assay: Immunoblot of pCdk2 in A375 cells; conditions: A375, 20 µM, 48 or 72 h
Protocol: as §1, §2

[3] = system: P53; assay: Immunoblot of P53 in A375 cells; conditions: A375, 20 µM, 48 and 72 h
Protocol: as §1, §2

[4] = system: MeWo melanoma cell line; assay: SRB cell viability assay in MeWo cells; conditions: for inhibition of melanoma cell viability: 20 µM; for inhibition of melanoma cell viability / EC50: 72 h; for EC50: Homo sapiens, read-out: EC50 useful in diminishing cell viability; for EC50 / viability reduction in melanoma cells: SRB; for viability reduction in melanoma cells: 40–60 µM
Protocol: In preliminary experiments, the evaluation of cell viability at different time after compound administration was carried out with sulforhodamine B (SRB) assay. Indeed, after 24-, 48-, and 72-h treatment, an evident time dependence in the inhibition of cell growth was registered (data not shown). Thus, to evaluate A375 and MeWo cell viability, we decided to perform further SRB experiments with each compound only after 72 h.
Human MeWo (HTB-65) and A375 (CRL-1619) melanoma cell lines as well as the normal human epidermal melanocyte (NHEM) (PCS-200-013) cell line (ATCC, Manassas, VA, USA) were cultured at 37 °C under 5% CO2 in a humidified atmosphere. Roswell Park Memorial Institute 1640 medium (RPMI, Gibco, Ref.21875, Thermo Scientific, Waltham, MA, USA) was used to culture MeWo cells, while Dulbecco’s Modified Eagle Medium (DMEM, Gibco, Ref. 61965, Thermo Scientific, Waltham, MA, USA) was used for A375 and NHEM cell lines. The culture media were supplemented with 10% fetal bovine serum (FBS, Gibco, Thermo Scientific, Waltham, MA, USA) plus 1% Antibiotic Antimycotic Solution (Gibco, Thermo Scientific). The MEK1 inhibitor U0126 (CAY-70970) and the PI3K inhibitor LY294002 (CAY-70920) were provided by Cayman Chemical, Ann Arbor, MI, USA.
Melanoma MeWo and A375 cells or NHEM were seeded in 96-well plates (5.0 × 10^3 cells/well for MeWo cells and 2.9 × 10^3 cells/well for A375 or NHEM). After 24-h culture, the cells were treated with different concentrations of compounds 1–7. After 72-h treatment, the cells were fixed by adding 25 µL/well of 50% (w/v) TCA directly into the culture medium. The plates were incubated at 4 °C for 1 h, washed four times with ddH2O, and dried at RT. Staining was performed by adding 50 µL/well of 0.04% (w/v) sulforhodamine B (SRB) sodium salt solution (Sigma-Aldrich, Milan, Italy). After 1-h incubation at RT, the plates were rinsed with 1% HAc and air-dried. SRB was solubilized in a 10 mM Tris-base solution pH 10.5 and Abs492 measured in the plate reader TECAN NanoQuant Infinite M200 Pro (Tecan Group Ltd., Männedorf, Switzerland). Six replicates for each condition/data point were performed.

[5] = system: P21(Cip1/Waf1); assay: Immunoblot of P21 in A375 cells; conditions: A375, 20 µM, 48 and 72 h
Protocol: as §1, §2

[6] = system: pAkt; assay: Immunoblot of pAkt in A375 cells; conditions: A375, 20 µM, 72 h; declined in control
Protocol: as §1
Protein extracts were analyzed with a 7.5 or 10% polyacrylamide SDS-PAGE and transferred to a polyvinylidene difluoride membrane (PVDF, Thermo Fisher Scientific, Waltham, MA, USA). The membranes were blocked at RT for 1 h with TBST buffer (10 mM Tris-HCl pH 7.5, 100 mM NaCl, 0.1% Tween20) containing 4% Milk (Formulat). Then, they were incubated on a shaker, overnight (ON) at 4 °C, with 5% BSA solution containing primary antibodies against p-Tyr705-STAT3 (#9145, 1:1000), pRb (#8516, 1:2000), pERK (#4370, 1:1000), pAkt (#4060, 1:2000), pSer15-P53 (#9286, 1:2000) (Cell Signaling Technology, Danvers, […], USA), Akt (GTX121937, 1:3000), ERK (GTX134452, 1:6000), Cyclin A2 (GTX-103042, 1:3000), p-Thr160Cdk2 (GTX-133862, 1:3000), p21 (GTX-629543, 1:3000) (Genetex, Alton Pkwj Irvine, CA, USA), p53 (Sc-263, 1:1000), STAT3 (Sc-482, 1:1000), and p-Ser727-STAT3 (Sc-136193, 1:1000) (Santa Cruz Biotechnology, Dallas, TX, USA). The membranes were washed three times with TBST buffer for 30 min and then incubated for 1 h with a horseradish-peroxidase-conjugated secondary antibody (anti-rabbit 1:6000, Genetex), (anti-mouse, 1:4000, Cell Signaling Technology, Danvers, […], USA). They were washed another three times for 30 min with TBST buffer. All protein extracts were normalized with a β-actin protein antibody (GTX-124214, 1:10,000; Genetex, Alton Pkwj Irvine, CA, USA). Immuno-detection was carried out with an ECL kit (GE-Healthcare, Little Chalfont, UK), and the chemiluminescence signals were detected with ChemiDoc (Bio-Rad, Hercules, CA, USA).

[7] = system: ERK1/2; assay: Immunoblot of total ERK1/2 in A375 cells; conditions: A375, 20 µM, 72 h
Protocol: as §1, §2

Row | Compound | p-Ser727-STAT3 level [1] | pCdk2 (active form of Cdk2) expression level [2] | P53 protein expression [3] | inhibition of melanoma cell viability [4] | EC50 [4] | viability reduction in melanoma cells [4] | P21 expression level [5] | pAkt expression level [6] | total protein amount of ERK1/2 [7]
1 | C[C@H]1COC2=C1C(=O)C(=O)c1c2ccc2c1CCCC2(C)C [Compound 4, cryptotanshinone] | increase | slightly reduced | significant increase | about 50% | 17 µM | 70–80% | significantly increased | remained high | 
2 | Cc1cc2ccc3c(c2cc(O)c1=O)CCCC3(C)C [Compound 7, salviolone] | increase | strongly reduced | significant increase | about 50% | 22 µM | 70–80% | strongly increased | remained high | increased
